According to patent US20260132129A1 (Genesis Therapeutics, Inc., priority 2022, published 2026):

Biological target: T1, PI3Kα H1047R (T47D cells) (Homo sapiens, UniProt P42336, H1047R)
T1 construct: endogenous in cells; host or cells: T47D cells
Assay: PI3Kα cellular assay: pAKT HTRF in T47D cells after EGF stimulation
Format: cell-based
Conditions: for IC50: T47D cells (PI3Kα H1047R), pAKT S473 HTRF, 1 hr compound, 20 ng/ml EGF 10 min
How it was run: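 T47D cells (PIK3CA H1047R) serum-starved 16 h, then treated 1 h at 37 °C with compound (10,000 nM top, 3-fold steps to 0.5 nM). After 10 min stimulation with 20 ng/mL EGF, cells were lysed and pAKT measured by HTRF.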

T1 sequence (P42336 whole entry H1047R): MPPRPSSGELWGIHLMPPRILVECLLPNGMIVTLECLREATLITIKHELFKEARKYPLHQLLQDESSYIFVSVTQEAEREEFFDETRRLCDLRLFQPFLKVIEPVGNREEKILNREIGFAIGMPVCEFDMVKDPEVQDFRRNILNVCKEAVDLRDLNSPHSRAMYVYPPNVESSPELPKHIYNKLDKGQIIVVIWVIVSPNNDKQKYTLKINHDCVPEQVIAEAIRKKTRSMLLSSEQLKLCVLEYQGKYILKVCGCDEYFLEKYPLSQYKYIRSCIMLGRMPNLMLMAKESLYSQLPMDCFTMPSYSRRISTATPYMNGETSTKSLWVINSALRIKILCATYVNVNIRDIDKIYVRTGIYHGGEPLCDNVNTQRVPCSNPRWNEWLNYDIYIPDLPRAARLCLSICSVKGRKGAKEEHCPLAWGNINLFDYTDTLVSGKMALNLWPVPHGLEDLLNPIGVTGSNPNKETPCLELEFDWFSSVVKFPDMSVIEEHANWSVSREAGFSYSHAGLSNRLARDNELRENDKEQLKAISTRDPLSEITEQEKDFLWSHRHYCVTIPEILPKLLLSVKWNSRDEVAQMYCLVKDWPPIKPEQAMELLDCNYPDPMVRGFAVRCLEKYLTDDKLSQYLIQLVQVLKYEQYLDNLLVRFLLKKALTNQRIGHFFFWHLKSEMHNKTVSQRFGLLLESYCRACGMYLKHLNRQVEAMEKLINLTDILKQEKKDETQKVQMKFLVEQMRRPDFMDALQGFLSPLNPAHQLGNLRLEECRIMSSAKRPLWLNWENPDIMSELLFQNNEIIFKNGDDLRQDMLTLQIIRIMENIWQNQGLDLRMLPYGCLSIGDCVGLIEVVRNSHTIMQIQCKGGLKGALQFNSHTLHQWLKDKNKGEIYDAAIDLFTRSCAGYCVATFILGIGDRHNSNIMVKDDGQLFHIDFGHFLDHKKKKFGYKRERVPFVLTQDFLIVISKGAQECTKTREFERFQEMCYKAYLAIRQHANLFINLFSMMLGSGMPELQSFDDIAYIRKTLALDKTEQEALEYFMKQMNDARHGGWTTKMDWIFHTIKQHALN
T1 sequence (P27986 whole entry partner): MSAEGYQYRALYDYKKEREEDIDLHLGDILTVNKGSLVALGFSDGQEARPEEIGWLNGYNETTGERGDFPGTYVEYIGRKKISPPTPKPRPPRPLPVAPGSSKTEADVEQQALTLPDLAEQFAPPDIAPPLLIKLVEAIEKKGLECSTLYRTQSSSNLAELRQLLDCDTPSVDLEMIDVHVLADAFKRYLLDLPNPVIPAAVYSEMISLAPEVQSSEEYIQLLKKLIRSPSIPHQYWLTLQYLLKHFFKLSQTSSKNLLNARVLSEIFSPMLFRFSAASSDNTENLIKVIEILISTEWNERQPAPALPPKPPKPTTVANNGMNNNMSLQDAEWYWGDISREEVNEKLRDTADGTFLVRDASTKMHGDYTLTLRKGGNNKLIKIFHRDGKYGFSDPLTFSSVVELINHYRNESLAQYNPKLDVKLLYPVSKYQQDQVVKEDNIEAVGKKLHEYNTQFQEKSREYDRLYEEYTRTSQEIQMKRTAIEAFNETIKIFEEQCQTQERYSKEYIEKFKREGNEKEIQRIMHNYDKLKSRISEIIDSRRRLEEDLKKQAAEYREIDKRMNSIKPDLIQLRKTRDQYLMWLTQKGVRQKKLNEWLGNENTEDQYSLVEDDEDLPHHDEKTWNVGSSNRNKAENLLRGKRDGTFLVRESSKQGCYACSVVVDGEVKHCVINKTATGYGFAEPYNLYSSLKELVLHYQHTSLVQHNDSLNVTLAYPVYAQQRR

| IC50 [nM] | T47D pAKT S473 HTRF IC50 (H1047R): T47D (H1047R) selectivity over SKBR3 (WT) | Structure (SMILES) |
| --- | --- | --- |
| > 2000 | C (C denotes ≤5-fold) | Cc1cc(C(C)Nc2ccccc2C(=O)O)c2nc(N3CCN(c4ccncc4)CC3)cc(=O)n2c1 (stereo not drawn) [Compound 467] |
| 500 to 2000 | B (B denotes 20-fold≥value>5-fold) | Cc1cc(C(C)Nc2ccccc2C(=O)O)c2nc(N3CCC4(CC3)COC4)cc(=O)n2c1 (stereo not drawn) [Compound 471] |
| > 2000 | C (C denotes ≤5-fold) | Cc1cc(C(C)Nc2ccccc2C(=O)O)c2nc(N3CCC(C)(O)CC3)cc(=O)n2c1 (stereo not drawn) [Compound 473] |
| 100 to 500 | A (A denotes >20-fold) | Cc1cc([C@H](C)Nc2ccccc2C(=O)O)c2nc(-c3ccc4c(c3)CC(=O)N4)cc(=O)n2c1 [Compound 478] |
| > 2000 | C (C denotes ≤5-fold) | Cc1cc([C@@H](C)Nc2ccccc2C(=O)O)c2cc(-c3ccncn3)cc(=O)n2c1 [Compound 481] |
| 500 to 2000 | B (B denotes 20-fold≥value>5-fold) | Cc1cc([C@H](C)Nc2ccccc2C(=O)O)c2cc(-c3ccncn3)cc(=O)n2c1 [Compound 482] |
| 500 to 2000 | B (B denotes 20-fold≥value>5-fold) | Cc1cc([C@@H](C)Nc2ccccc2C(=O)O)c2cc(-c3ccnnc3)cc(=O)n2c1 [Compound 483] |
| > 2000 | C (C denotes ≤5-fold) | Cc1cc([C@H](C)Nc2ccccc2C(=O)O)c2cc(-c3ccnnc3)cc(=O)n2c1 [Compound 484] |
| > 2000 | C (C denotes ≤5-fold) | CONC(=O)c1ccc(-c2cc(=O)n3cc(C)cc([C@@H](C)Nc4ccccc4C(=O)O)c3n2)cc1 [Compound 485] |
| 100 to 500 | A (A denotes >20-fold) | CONC(=O)c1ccc(-c2cc(=O)n3cc(C)cc([C@H](C)Nc4ccccc4C(=O)O)c3n2)cc1 [Compound 486] |
| > 2000 | C (C denotes ≤5-fold) | Cc1cc(C(C)Nc2ccccc2C(=O)O)c2nc(-c3ccc(C(=O)NO)cc3)cc(=O)n2c1 (stereo not drawn) [Compound 487] |
| > 2000 | C (C denotes ≤5-fold) | Cc1cc([C@@H](C)Nc2ccccc2C(=O)O)c2nc(-c3ccc4nc(CO)[nH]c4c3)cc(=O)n2c1 [Compound 488] |
| > 2000 | C (C denotes ≤5-fold) | Cc1cc([C@H](C)Nc2ccccc2C(=O)O)c2nc(-c3ccc4nc(CO)[nH]c4c3)cc(=O)n2c1 [Compound 489] |
| > 2000 | C (C denotes ≤5-fold) | Cc1cc(C(C)Nc2ccccc2C(=O)O)c2nc(N3CCC4(CC3)CC(=O)N4)cc(=O)n2c1 (stereo not drawn) [Compound 490] |
| > 2000 | C (C denotes ≤5-fold) | Cc1cc(C(C)Nc2ccccc2C(=O)O)c2nc(N3CCC4(CC3)CNC4=O)cc(=O)n2c1 (stereo not drawn) [Compound 491] |
| > 2000 | C (C denotes ≤5-fold) | Cc1cc(C(C)Nc2ccccc2-c2ccnnc2)c2nc(N3CCOCC3)cc(=O)n2c1 (stereo not drawn) [Compound 494] |
| > 2000 | C (C denotes ≤5-fold) | Cc1cc([C@@H](C)Nc2ccccc2-c2ccnnc2)c2nc(N3CCOCC3)cc(=O)n2c1 [Compound 495] |
| 500 to 2000 | C (C denotes ≤5-fold) | Cc1cc([C@H](C)Nc2ccccc2-c2ccnnc2)c2nc(N3CCOCC3)cc(=O)n2c1 [Compound 496] |
| 500 to 2000 | B (B denotes 20-fold≥value>5-fold) | Cc1cc([C@@H](C)Nc2ccccc2C(=O)O)c2nc(-c3cc(C)c4[nH]c(=O)[nH]c4c3)cc(=O)n2c1 [Compound 497] |
| > 2000 | C (C denotes ≤5-fold) | Cc1cc([C@H](C)Nc2ccccc2C(=O)O)c2nc(-c3cc(C)c4[nH]c(=O)[nH]c4c3)cc(=O)n2c1 [Compound 498] |
| 100 to 500 | A (A denotes >20-fold) | Cc1cc([C@@H](C)Nc2ccccc2C(=O)O)c2nc(-c3ccc4[nH]c(=O)[nH]c4c3)cc(=O)n2c1 [Compound 499] |
| > 2000 | C (C denotes ≤5-fold) | Cc1cc([C@H](C)Nc2ccccc2C(=O)O)c2nc(-c3ccc4[nH]c(=O)[nH]c4c3)cc(=O)n2c1 [Compound 500] |
| > 2000 | C (C denotes ≤5-fold) | Cc1cc([C@@H](C)Nc2ccccc2C(=O)O)c2nc(-c3ccc(C(=O)NO)cc3)cc(=O)n2c1 [Compound 501] |

| IC50 [nM] | T47D pAKT S473 HTRF IC50 (H1047R): T47D (H1047R) selectivity over SKBR3 (WT) | Structure (SMILES) |
| --- | --- | --- |
| > 2000 | C (C denotes ≤5-fold) | Cc1cc([C@H](C)Nc2ccccc2C(=O)O)c2nc(-c3ccc(C(=O)NO)cc3)cc(=O)n2c1 [Compound 502] |
| > 2000 | C (C denotes ≤5-fold) | CCc1cc(C(=O)NOC)ccc1-c1cc(=O)n2cc(C)cc([C@@H](C)Nc3ccccc3C(=O)O)c2n1 [Compound 503] |
| > 2000 | C (C denotes ≤5-fold) | CCc1cc(C(=O)NOC)ccc1-c1cc(=O)n2cc(C)cc([C@H](C)Nc3ccccc3C(=O)O)c2n1 [Compound 504] |
| > 2000 | C (C denotes ≤5-fold) | Cc1cc(C(C)Nc2ccccc2C(=O)O)c2nc(Nc3ccc4[nH]c(=O)[nH]c4c3)cc(=O)n2c1 (stereo not drawn) [Compound 505] |
| 500 to 2000 | B (B denotes 20-fold≥value>5-fold) | Cc1cc(C(C)Nc2ccccc2C(=O)O)c2nc(-c3ccc4c(c3)NC(=O)C4)cc(=O)n2c1 (stereo not drawn) [Compound 506] |
| > 2000 | C (C denotes ≤5-fold) | CC(=O)Cc1cc2ccc(-c3cc(=O)n4cc(C)cc(C(C)Nc5ccccc5C(=O)O)c4n3)cn2n1 (stereo not drawn) [Compound 507] |
| > 2000 | C (C denotes ≤5-fold) | CC(=O)N1CCC(c2cc(=O)n3cc(C)cc(C(C)Nc4ccccc4C(=O)O)c3n2)CC1 (stereo not drawn) [Compound 508] |
| > 2000 | C (C denotes ≤5-fold) | Cc1cc(C(C)Nc2ccccc2C(=O)O)c2nc(C3CCN(CC(N)=O)CC3)cc(=O)n2c1 (stereo not drawn) [Compound 509] |
| > 2000 | C (C denotes ≤5-fold) | Cc1cc([C@H](C)Nc2ccccc2C(=O)O)c2nc(C3CCN(CC(N)=O)CC3)cc(=O)n2c1 [Compound 510] |
| > 2000 | C (C denotes ≤5-fold) | CC(=O)N1CCCC(c2cc(=O)n3cc(C)cc(C(C)Nc4ccccc4C(=O)O)c3n2)CC1 (stereo not drawn) [Compound 511] |
| > 2000 | C (C denotes ≤5-fold) | Cc1cc([C@H](C)Nc2ccccc2C(=O)O)c2nc(N3C[C@H](C)C[C@H](C)C3)cc(=O)n2c1 [Compound 513] |
| 500 to 2000 | B (B denotes 20-fold≥value>5-fold) | Cc1cc(C(C)Nc2ccccc2C(=O)O)c2nc(-c3ccc4[nH]c(=O)[nH]c4c3)cc(=O)n2c1 (stereo not drawn) [Compound 514] |
| 500 to 2000 | B (B denotes 20-fold≥value>5-fold) | Cc1cc(C(C)Nc2ccccc2C(=O)O)c2nc(-c3ccc4[nH]cnc4c3)cc(=O)n2c1 (stereo not drawn) [Compound 515] |
| 100 to 500 | A (A denotes >20-fold) | Cc1cc([C@@H](C)Nc2ccccc2C(=O)O)c2nc(-c3ccc4[nH]cnc4c3)cc(=O)n2c1 [Compound 516] |
| > 2000 | C (C denotes ≤5-fold) | Cc1cc([C@H](C)Nc2ccccc2C(=O)O)c2nc(-c3ccc4[nH]cnc4c3)cc(=O)n2c1 [Compound 517] |
| > 2000 | C (C denotes ≤5-fold) | CC(=O)Oc1nc2ccc(-c3cc(=O)n4cc(C)cc([C@H](C)Nc5ccccc5C(=O)O)c4n3)cn2n1 [Compound 518] |
| > 2000 | C (C denotes ≤5-fold) | Cc1cc(C(C)Nc2ccccc2C(=O)O)c2nc(-c3ccc4nc(NC(=O)C5CC5)nn4c3)cc(=O)n2c1 (stereo not drawn) [Compound 519] |
| > 2000 | C (C denotes ≤5-fold) | Cc1cc([C@@H](C)Nc2ccccc2C(=O)O)c2nc(-c3ccc4nc(NC(=O)C5CC5)nn4c3)cc(=O)n2c1 [Compound 520] |
| > 2000 | C (C denotes ≤5-fold) | Cc1cc([C@H](C)Nc2ccccc2C(=O)O)c2nc(-c3ccc4nc(NC(=O)C5CC5)nn4c3)cc(=O)n2c1 [Compound 521] |
| > 2000 | C (C denotes ≤5-fold) | CC(=O)N1CCC(c2cc(=O)n3cc(C)cc([C@@H](C)Nc4ccccc4C(=O)O)c3n2)CC1 [Compound 522] |
| 500 to 2000 | B (B denotes 20-fold≥value>5-fold) | CC(=O)N1CCC(c2cc(=O)n3cc(C)cc([C@H](C)Nc4ccccc4C(=O)O)c3n2)CC1 [Compound 523] |
| > 2000 | C (C denotes ≤5-fold) | Cc1cc(C(C)Nc2ccccc2C(=O)O)c2nc(C3CCN(C(=O)C4(N)CC4)CC3)cc(=O)n2c1 (stereo not drawn) [Compound 524] |
